Structures are written as SMILES. Where only a bound is given, the exact number is not on record here.

In this assay the target is T1, human NK-2 receptor (Homo sapiens, UniProt P21452).
T1 construct: expressed in transfected cells; host or cells: CHO cells (membrane preparation)
T1 sequence (P21452 1-398): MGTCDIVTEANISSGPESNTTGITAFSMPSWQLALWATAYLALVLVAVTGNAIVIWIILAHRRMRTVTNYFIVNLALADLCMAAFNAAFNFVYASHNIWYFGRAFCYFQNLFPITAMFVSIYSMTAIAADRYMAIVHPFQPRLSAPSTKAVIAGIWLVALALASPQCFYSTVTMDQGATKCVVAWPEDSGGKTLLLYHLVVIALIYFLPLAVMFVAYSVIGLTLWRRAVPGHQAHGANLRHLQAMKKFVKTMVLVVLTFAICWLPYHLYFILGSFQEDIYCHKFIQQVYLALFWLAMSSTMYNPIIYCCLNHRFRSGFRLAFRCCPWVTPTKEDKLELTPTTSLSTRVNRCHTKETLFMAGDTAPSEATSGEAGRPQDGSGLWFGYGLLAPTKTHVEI
Briefly: Binding power of the test substances to NK-2 receptors in vitro ([3H]-SR 48968 displacement, CHO cell membranes). As to conditions: displacement of [3H]-SR 48968, 90 min incubation, average of at least three measurements, 10^-6 to 10^-10 mol/l, read-out: pKi, affinity to human NK-2 receptors (converted). Here is the method: 1. Determination of the Binding Power of the Test Substances to NK-2 Receptors in vitro
The affinity of the test substances to human NK-2 receptors was measured in vitro. The ability of the test substances to displace the selective NK-2 receptor antagonist SR 48968 (=saredutant) used as reference ligand from its corresponding bond was determined.
The receptor binding studies were carried out with radioactively marked [^3H]-SR 48968 (from Amersham) as ligand. For the binding test, different samples of a membrane preparation of CHO cells (=[…]), which express the human NK-2 receptor (for preparation, see N. P. Gerard et al., Journal of Biological Chemistry 265/33 (1990) 20455-20462), were incubated for 90 minutes (=min.) with a solution of the marked ligand, with the incubation mixtures containing no test substance or additions of different concentrations of test substance. Then in each case the membrane-bound ligands in the samples were separated from free ligands by filtration. The fraction remaining in the filter was washed several times with buffer solution, before its radioactivity was measured using a liquid scintillation counter. That concentration which effects half-maximum displacement of the bound reference ligand was determined as IC50 of the respective test substance. The inhibition constant (Ki value) of the test substance was calculated from the respective IC50 value, and was stated as the negative logarithmised value thereof (pKi).
For the compounds of Examples 1 to 39, the affinity to human NK-2 receptors was determined in each case by at least three measurements of the test substances in concentration series of 10^−6 to 10^−10 mol/l. If several measurements were performed, the average thereof was listed each time.
For orientation: Displacement assays read how much labelled ligand stays bound in the presence of the test substance.

As for `CN(CC(CCN1CCN(C(c2cccs2)[C@H](O)[C@@H](O)[C@H](O)CO)CC1)c1ccc(Cl)c(Cl)c1)C(=O)c1ccccc1` (mixture of isomers) [Example 24], the Ki is not above 10 nM.

In the case of `CN(CC(CCN1CCN(C(c2ccsc2)[C@@H](O)[C@@H](O)[C@H](O)[C@H](O)CO)CC1)c1ccc(Cl)c(Cl)c1)C(=O)c1ccccc1` (mixture of isomers) [Example 21], the Ki was not above 10 nM.

As for `CN(CC(CCN1CCN(C(c2ccsc2)[C@@H](O)[C@H](O)[C@@H](O)[C@@H](O)CO)CC1)c1ccc(Cl)c(Cl)c1)C(=O)c1ccccc1` (mixture of isomers) [Example 20], the Ki is not above 10 nM. Under `CN(CC(CCN1CCN(C(c2ccsc2)[C@@H](O)CO)CC1)c1ccc(Cl)c(Cl)c1)C(=O)c1ccccc1` (mixture of isomers) [Example 11] stands not above 10 nM; under `CN(CC(CCN1CCN(C(c2ccsc2)[C@@H](O)[C@@H](O)[C@@H](O)CO)CC1)c1ccc(Cl)c(Cl)c1)C(=O)c1ccccc1` (mixture of isomers) [Example 27], not above 10 nM; under `CN(CC(CCN1CCN(C(c2ccccc2)[C@H](O)[C@@H](O)[C@H](O)CO)CC1)c1ccc(Cl)c(Cl)c1)C(=O)c1ccccc1` (mixture of isomers) [Example 25], not above 10 nM. Take `CN(CC(CCN1CCN(C(c2ccsc2)[C@H](O)[C@@H](O)[C@H](O)[C@H](O)CO)CC1)c1ccc(Cl)c(Cl)c1)C(=O)c1ccccc1` (mixture of isomers) [Example 23]: the Ki was not above 10 nM. As for `CN(CC(CCN1CCN(C(c2cccs2)[C@@H](O)[C@H](O)[C@H](O)CO)CC1)c1ccc(Cl)c(Cl)c1)C(=O)c1ccccc1` (mixture of isomers) [Example 19], the figure is not above 10 nM. Under `CN(CC(CCN1CCN(C(c2ccsc2)C(O)CO)CC1)c1ccc(Cl)c(Cl)c1)C(=O)c1ccccc1` (stereo not shown) [Example 18] stands not above 10 nM. Take `CN(C[C@@H](CCN1CCN(C(c2ccsc2)[C@@H](O)[C@H](O)[C@@H](O)CO)CC1)c1ccc(Cl)c(Cl)c1)C(=O)c1ccccc1` (stereo partly drawn) [Example 12, N-((2S)-2-(3,4-dichlorophenyl)-4-{4[(2R,3S,4S)-2,3,4,5-tetrahydroxy-1-(3-thienyl)pentyl]-1-piperazinyl}butyl)-N-methylbenzamide]: the Ki was not above 10 nM. For the molecule `CN(C[C@@H](CCN1CCN(C(c2ccco2)[C@H](O)[C@@H](O)[C@H](O)CO)CC1)c1ccc(Cl)c(Cl)c1)C(=O)c1ccccc1` (stereo partly drawn) [Example 10, N-((2S)-2-(3,4-dichlorophenyl)-4-{4[(2S,3R,4R)-2,3,4,5-tetrahydroxy-1-(2-furyl)pentyl]-1-piperazinyl}-butyl)-N-methylbenzamide], the Ki was not above 10 nM. `CN(CC(CCN1CCN(C(c2ccsc2)[C@H](O)[C@@H](O)CO)CC1)c1ccc(Cl)c(Cl)c1)C(=O)c1ccccc1` (mixture of isomers) [Example 16]: the Ki is not above 10 nM. As for `CN(CC(CCN1CCN(C(CO)c2ccsc2)CC1)c1ccc(Cl)c(Cl)c1)C(=O)c1ccccc1` (stereo not shown) [Example 26], the figure is not above 10 nM; as for `CN(C[C@@H](CCN1CCN(C(c2ccoc2)[C@H](O)CO)CC1)c1ccc(Cl)c(Cl)c1)C(=O)c1ccccc1` (stereo partly drawn) [Example 6, N-((2S)-2-(3,4-dichlorophenyl)-4-{4[(2S)-2,3-dihydroxy-1-(3-furyl)propyl]-1-piperazinyl}-butyl)-N-methylbenzamide], not above 1 nM; as for `CN(C[C@@H](CCN1CCN(C(c2ccco2)[C@H]2COC(=O)O2)CC1)c1ccc(Cl)c(Cl)c1)C(=O)c1ccccc1` (stereo partly drawn) [Example 4, N-[((2S)-2-(3,4)-dichlorophenyl)-4-(4-{2-furyl[(4S)-2-oxo-1,3-dioxolan-4-yl]methyl}-1-piperazinyl)butyl]-N-methylbenzamide], not above 1 nM. On to `CN(C[C@@H](CCN1CCN(C(c2ccco2)[C@H](O)CO)CC1)c1ccc(Cl)c(Cl)c1)C(=O)c1ccccc1` (stereo partly drawn) [Example 2, N-((2S)-2-(3,4-dichlorophenyl)-4-{4[(2S)-2,3-dihydroxy-1-(2-furyl)propyl]-1-piperazinyl}-butyl)-N-methylbenzamide], for which the Ki is not above 1 nM. Under `CN(C[C@@H](CCN1CCN(C(c2ccco2)[C@H]2COC(=S)O2)CC1)c1ccc(Cl)c(Cl)c1)C(=O)c1ccccc1` (stereo partly shown) [Example 39] stands not above 1 nM; under `CN(CC(CCN1CCN(C(c2cccs2)C(O)CO)CC1)c1ccc(Cl)c(Cl)c1)C(=O)c1ccccc1` (stereo not shown) [Example 22], not above 10 nM. As for `CN(CC(CCN1CCN(C(c2ccsc2)[C@H](O)CO)CC1)c1ccc(Cl)c(Cl)c1)C(=O)c1ccccc1` (mixture of isomers) [Example 8], the figure is not above 10 nM.

Source of the values: US6770649B2, “1-[1-(hetero)aryl-1-perhydroxyalkylmethyl]-piperazine compounds, process for their preparation and pharmaceutical compositions containing them” (Solvay Pharmaceuticals GmbH, priority 2001, dated 2004).
